# Results published in patent US20250099548A1, “PHARMACEUTICAL COMPOSITION FOR PREVENTING OR TREATING DEGENERATIVE BRAIN DISEASES, CONTAINING GLUCAGON-LIKE PEPTIDE-1 AND INTERLEUKIN-1 RECEPTOR ANTAGONIST” (GI INNOVATION, INC., priority 2022, published 2025).
# Tested on: Tg-APP/PS1 mice
# Experiment: DCX immunochemical staining of hippocampal DG region
# Format: in vivo, mouse
# Conditions: Example 1; GI210B1 1.2 mg/kg intraperitoneal, 4 times for 2 weeks
# Text: DCX (doublecortin) is continuously expressed during the 2-3 weeks during which immature neurons mature, and is expressed in […]. For this reason, DCX is used as a marker of neurogenesis, indicating the degree of neuronal differentiation and after the metaphase of newly generated neurons.
# In order to confirm the effect of GI210B1 on the decreased neurogenesis in the DG (dentate gyrus) region of the hippocampus of Tg mice, the Tg-APP/PS1 mice administered with GI210B1 (Tg+GI210B1), the wild type mice (WT) as a normal group, and the Tg-APP/PS1 mice (Tg or Tg+Veh) as a control group were sacrificed, and then the brain tissue was extracted, and the DG region of the hippocampus was stained with DCX.
# In the same manner as in Example 1.4.2 above, the mice from each group were sacrificed, and then the brain tissue was extracted, and the DG region of the hippocampus was stained with DCX.
substance,measurement,value
"GI210B1: fusion protein dimer comprising GLP-1 (SEQ ID NO: 2), IgG4 Fc domain and IL-1Ra; SEQ ID NO: 10",number of DCX positive cells in the DG region of the hippocampus,"increased compared to the control group (Tg), and was recovered to a level similar to that of the normal group (WT)"
